One block for each molecule: values may come before it.
Tests used:
[1] = test system: 3 month-old WT mice; assay: Alendronate treatment with or without osteocalcin, MWMT and NOR; type: in vivo, mouse
Method: For plasma injection experiments, 100 μl of plasma were injected 8 times during 24 days, via tail vein. Each group described is represented individually in each panel. For osteocalcin delivery in WT mice, pumps (Alzet micro-osmotic pump, Model 1002) delivering osteocalcin (30 ng/hr for 12 month-old and 90 ng/hr for 16 month-old mice), or vehicle, were surgically installed subcutaneously in the back of mice. […] Control mice receiving vehicle or mice receiving alendronate were implanted with osmotic pumps delivering vehicle only.
Morris water maze test: Animals are transported to the testing room in their home cages, and left undisturbed for at least 30 minutes prior to the first trial. The maze is comprised of a large swimming pool (150cm diameter) filled with water (23° C.) made opaque with non-toxic white paint. The pool is located in a brightly lit room filled with visual cues, including geometric figures on the walls of the maze demarking the four fixed starting positions of the trials, at (12:00, 3:00, 6:00 and 9:00). A 15 cm round platform is hidden 1 cm beneath the surface of the water at a fixed position. Each daily trial block consisted of four swimming trials, with each mouse starting from the same randomly chosen starting position. The starting position is varied between days. On day 1, mice that fail to find the platform within 2 min are guided to the platform. They must remain on the platform for 15 s before they are returned to their home cage. Mice are not guided to the platform after day 1, and the time it takes them to reach the platform over repeated trials ([…] for the next 10 days) is recorded as a measure of spatial learning.
Novel object recognition test (NOR): The NOR paradigm assesses the rodent's ability to recognize a novel object in the environment. The NOR task will be conducted, as previously described7, in an opaque plastic box using 2 different objects: (1) a clear plastic funnel (diameter 8.5 cm, maximal height 8.5 cm) and (2) a black plastic box (9.5 cm^3). These objects elicit equal levels of exploration as determined in pilot experiments (Denny, C. A., et al., 2012, Hippocampus 22:1188-1201; Oury, F., et al., 2013, Cell 155:228-241). The NOR paradigm consists of 3 exposures over the course of 3 days. On day 1, the habituation phase, mice are given 5 minutes to explore the empty arena, without any objects. On day 2, the familiarization phase, mice are given 10 minutes to explore 2 identical objects, placed at opposite ends of the box. On day 3, the test phase, mice are given 15 minutes to explore 2 objects, one novel object and a copy of the object from the familiarization phase. The object that serves as the novel object (either the funnel or the box) as well as the left/right starting position of the objects are counterbalanced within each group. Mice are placed in the center of the arena at the start of each exposure. […] Preference for the novel object is assessed based on the fraction of time that a mouse spends exploring the novel object compared to the familiar object. Exploration is scored from video recordings of each exposure and recorded using the Stopwatch program. […]
Streptavidin were added for 30 minutes at room temperature followed by PBS washes. […] For hormonal measurement; circulating levels of the carboxylated, undercarboxylated or uncarboxylated forms of osteocalcin were measured by ELISA. CTX content in serum (ng/ml) were measured with specific ELISAs (RatLaps™ (CTX-I) EIA (Immunodiagnosticsystems).

[2] = test system: brainstem neurons (dorsal raphe 5-HT neurons, locus coeruleus, GABAergic interneurons); assay: Whole cell current clamp recording in brainstem slices; type: cell-based, mouse; details: 3 μM, current clamp in slices
Method: Brain slice preparations and electrophysiological recordings were performed according to methods known in the art. Briefly, WT mice were anesthetized with ether and then decapitated. The brains were rapidly removed and immersed in an oxygenated bath solution at 40° C. containing (in mM): sucrose 220, KCl 2.5, CaCl2 1, MgC12 6, NaH2PO4 1.25, NaHCO3 26, and glucose 10 pH 7.3 with NaOH. Coronal slices (350 μm thick) containing dorsal raphe (DR) were cut on a vibratome and maintained in a holding chamber with artificial cerebrospinal fluid (ACSF) (bubbled with 5% CO2 and 95% O2) containing (in mM): NaCl 124, KCl 3, CaCl2 2, MgCl2 2, NaH2PO4 1.23, NaHCO3 26, glucose 10, pH 7.4 with NaOH, and were transferred to a recording chamber constantly perfused with bath solution (330 C) at 2 ml/min after at least a 1 hr recovery. Whole-cell current clamp was performed to observe action potentials in DR serotoninergic (5-HT) neurons with a Multiclamp 700A amplifier (Axon instrument, CA). Patch pipettes with a tip resistance of 4-6 MΩ were made of borosilicate glass (World Precision Instruments) with a Sutter pipette puller (P-97) and filled with a pipette solution containing (in mM): K-gluconate (or Cs-gluconate) 135, MgCl2 2, HEPES 10, EGTA 1.1, Mg-ATP 2, Na2-phosphocreatine 10, and Na2-GTP 0.3, pH 7.3 with KOH. After a giga-Ohm (GΩ) seal and whole-cell access were achieved, the series resistance (between 20 and 40 MΩ) was partially compensated by the amplifier. […] All data were sampled at 3-10 kHz and filtered at 1-3 kHz with an Apple Macintosh computer using Axograph 4.9 (Axon Instruments). Electrophysiological data were analyzed with Axograph 4.9 and plotted with Igor Pro software (WaveMetrics, Lake Oswego, Oreg.).

[3] = Blood brain barrier crossing: subcutaneous pump infusion, content in blood, bone and brain parts by ELISA; type: in vivo, mouse; details: ob/ob mice, subcutaneous infusion 50 ng/hour, seven days; positive control
Method: Osteocalcin−/−, Gprc6a−/−, Osteocalcin-mCherry, and Osteocalcin foxed mice have been previously described (Ducy et al., 1996, Nature 382:448-452; Oury et al., 2011, Cell 144:796-809). Mouse genotypes were determined by PCR. For all experiments, controls were littermate female WT, Cre-expressing, or flox/flox. All mice were maintained on a pure 129-Sv genetic background except for the inducible deletion Osteocalcin model (mix background: 25% C57/BL6 and 75% 129sv). For inducible gene deletion mice, tamoxifen was prepared in corn oil and injected intraperitoneally (IP) (1 mg/20g of body weight) over one week. For osteocalcin delivery to pregnant mice, IP injections (240 ng/day) were performed as soon as a plug was present daily until delivery (E0.5-E18.5). For osteocalcin or leptin infusion in adult Osteocalcin−/− or ob/ob mice, pumps (Alzet micro-osmotic pump, Model 1002) delivering osteocalcin (300 ng/hr), leptin (50 ng/hr), or vehicle were surgically installed subcutaneously in the backs of 3-month old mice. For the postnatal rescue of cognitive functions in Osteocalcin−/− mice, osteocalcin (10 ng/hour) or vehicle were delivered intrasubventricularly (icv) as previously described (Ducy et al., 2000, Cell 100:197-207). Leptin and osteocalcin content in sera and tissues were determined by ELISA.
To understand how this behavioral phenotype develops, whether osteocalcin crosses the blood brain barrier (BBB) was tested by installing pumps that subcutaneously delivered vehicle or uncarboxylated osteocalcin (50 ng/hour) in three-month-old Osteocalcin−/− mice. The positive control for this experiment was subcutaneous infusion of leptin (50 ng/hour) in 3 month-old ob/ob mice, since leptin is known to cross the BBB (Banks et al., 1996, Peptides 17:305-311). Seven days later, osteocalcin and leptin content were measured in blood, bone, and in various parts of the brain in Osteocalcin−/− and ob/ob mice, respectively.

[4] = test system: Tph2, Th, Gad1 expression in brainstem and midbrain explants; assay: Gene expression (qPCR) in brainstem and midbrain explants; type: cell-based, mouse; details: leptin positive control; WT or Gprc6a−/− brainstem explants
Method: For gene expression studies, RNA was isolated from primary neurons or tissue using TRIZOL® (Invitrogen). cDNA synthesis was performed following a standard protocol from Invitrogen and qPCR analyses were done using specific quantitative PCR primers from SABiosciences (http://www.sabiosciences.com/RT2PCR.php).
Brains were dissected and incubated for 30 minutes in ice cold oxygenated artificial cerebrospinal fluid (ACSF). Brains were then sliced at 500 μm at the midbrain, −1.55 to −2.35 mm from the bregma, and at the level of the brainstem, from −4.04 to −4.48 mm and from −4.60 to −5.20 mm from the bregma, to include the median and dorsal raphe, respectively. These slices were incubated in ACSF for 1 h, constantly oxygenated (95% O2 and 5% CO2) […], after which they were treated with either osteocalcin (10 ng/ml) or PBS for four hours. Expression of Tph2, TH, GAD 1, GAD2, and Ddc was measured by qPCR.
To determine if osteocalcin acts directly on neurons to modulate neurotransmitter synthesis, several types of assays were performed. First, brainstem and midbrain explants from WT and Gprc6a^−/− mice were generated. Brains were sliced (500 μm) at the level of the median and dorsal raphe of the brainstem (from −4.04 to −4.48 mm and from −4.60 to −5.20 mm, respectively), so that they would be enriched in serotonin-producing neurons, as well as at the level of substantia nigrae and ventral tegmental areas (VTA) of the midbrain (from −1.55 to −2.35 mm and from −2.55 to −3.25 mm, respectively). Enrichment in serotoninergic and catecholaminergic neurons in these explants was verified by their high Tph2 and Th expression. While leptin, used here as a positive control, reduced, as it should, Tph2 expression in WT or Gprc6a^−/− brainstem explants, osteocalcin ([…]) increased expression of this gene 2.5 fold in both WT and Gprc6a^−/− explants. (FIG. 3D). […] Third, to further confirm that osteocalcin signals in neurons of the hindbrain, calcium flux in MPHN treated with undercarboxylated or carboxylated osteocalcin (FIG. 3F) was measured.

learning in the MWMT ([1]; alendronate-treated mice): delay in learning in the MWMT
memory in NOR ([1]; alendronate-treated mice): memory deficit in NOR
Molecule: NCCCC(O)(P(=O)(O)O)P(=O)(O)O [alendronate]
bone resorption ([1]; 3 week-long treatment): inhibited bone resorption
circulating levels of bioactive osteocalcin ([1]; 3 week-long treatment): decreased the circulating levels of bioactive osteocalcin

Molecule: CN1CC(=O)N=C1N.NCCc1c[nH]c2ccc(O)cc12.O=S(=O)(O)O [serotonin creatinine sulfate complex, reference compound]
action potentials in dorsal raphe 5-HT neurons [2]: inhibited action potentials

B1: leptin (protein, UniProt P41160 22-167, looked up)
Leptin: VPIQKVQDDTKTLIKTIVTRINDISHTQSVSAKQRVTGLDFIPGLHPILSLSKMDQTLAVYQQVLTSLPSQNVLQIANDLENLRDLLHLLAFSKSCSLPQTSGLQKPESLDGVLEASLYSTEVVALSRLQGSLQDILQQLDVSPEC
notes: adipocyte-derived hormone, positive control known to cross the BBB
leptin content in parts of the brain [3]: could be detected in the brainstem and hypothalamus
Tph2 expression [4]: reduced

Source: patent publication US20200069775A1, “BRAIN OSTEOCALCIN RECEPTOR AND COGNITIVE DISORDERS” (The Trustees of Columbia University in the City of New York, priority 2017, published 2020)
